Tested on: Male beagle dogs
Assay: canine telemetry protocol, blood pressure reduction efficacy
Format: in vivo
Conditions: change from baseline, 3 mg/kg oral gavage; for ΔPP (mmHg) 1-6 h / ΔPP (mmHg) 6-12 h / ΔPP (mmHg) 12-18 h: pulse pressure; for ΔSBP (mmHg) 1-6 h / ΔSBP (mmHg) 6-12 h / ΔSBP (mmHg) 12-18 h: systolic blood pressure
Procedure: Compounds of the invention were evaluated for blood pressure reduction efficacy using the following canine telemetry protocol described below.
Male beagle dogs (approximately 1-3 years old) with a body weight of between 10 and 16 kg were surgically implanted with DSI radiotelemetry devices (model: TL11M2-D70-PCT). Briefly, under an inhalant anesthesia, isoflurane/oxygen mixture (1-3.5%/to effect), the body of the telemetry device was positioned and secured intra-abdominally. Subsequently, the arterial catheter of the telemetry device was passed subcutaneously to the inguinal area and introduced into the femoral artery and advanced to the level of the descending aorta. The catheter was secured with 2-0 silk ligatures. The muscle and underlying fascia was closed over the catheter using absorbable suture and the skin was closed using non-absorbable suture. The animals were allowed a minimum recovery period of 2 weeks between surgery and the evaluation of test compounds.
Compound evaluation consisted of a 3 day paradigm at a 3 mg/kg dose. On the first day, no compounds were administered during a 24 hour period of baseline data collection. Blood pressure and heart rate data were collected continuously for one minute periods at 10 minute intervals. On the days of compound administration half the animals received test article with the other half receiving the vehicle used for compound formulation. All test materials were administered by oral gavage in a volume of 1 mL/kg. Data are expressed either as raw values (mm Hg or beats per minute) or as the change from baseline (average value for about 12 hours in low activity period prior to dosing). Change is SBP (systolic blood pressure) and PP (pulse pressure) over time is shown below: […]

| Molecule | ΔPP (mmHg) 1-6 h [mmHg] | ΔPP (mmHg) 6-12 h [mmHg] | ΔPP (mmHg) 12-18 h [mmHg] | ΔSBP (mmHg) 1-6 h [mmHg] | ΔSBP (mmHg) 6-12 h [mmHg] | ΔSBP (mmHg) 12-18 h [mmHg] |
| --- | --- | --- | --- | --- | --- | --- |
| CN(/[N+]([O-])=N/OC1CCCCC1)C(C)(C)C [Example 2] | −9 | −11 | −12 | −11 | −9 | −9 |
| CN(/[N+]([O-])=N/OC1CCC(F)(F)CC1)C(C)(C)C [Example 9, O^2-(4,4-difluorocyclohexyl) 1-(N-tert-butyl-N-methylamino)diazen-1-ium-1,2-diolate] | −7 | −8 | −8 | −8 | −12 | −13 |
| O^2-(trans-4-hydroxy-4-phenylcyclohexyl) 1-(N-tert-butyl-N-methylamino)diazen-1-ium-1,2-diolate [Example 19] | −7 | −9 | −9 | −11 | −12 | −15 |
| O^2-(trans-4-phenylcyclohexyl) 1-(N-tert-butyl-N-methylamino)diazen-1-ium-1,2-diolate [Example 33] | −7 | −12 | −11 | −9 | −15 | −9 |

Source: patent publication US9272987B2, “Diazeniumdiolate cyclohexyl derivatives” (Merck Sharp & Dohme Corp., priority 2011, dated 2016)
